{"source": "patent US10221163B2", "about": "(priority 2015, dated 2019)", "experiment_in_all_cases": "microbe, parasite or virus in culture", "key": {"[1]": {"test_system": "MB 9799: MB 5890 Trans IMP1 plasmid (OprD+, efflux−)", "format": "cell-based, Pseudomonas aeruginosa", "conditions": "MB 9799 = MB 5890 Trans IMP1 plasmid, OprD+, efflux−"}, "[2]": {"test_system": "Pseudomonas aeruginosa MB 5890 (OprD+, efflux−)", "format": "cell-based", "conditions": "MB 5890, OprD+, efflux−"}, "[3]": {"test_system": "MB 5919 Trans pFlp-Vim2 plasmid (OprD+, efflux+)", "format": "cell-based, Pseudomonas aeruginosa", "conditions": "MB 5919 Trans pFlp-Vim2 plasmid, OprD+, efflux+"}, "[4]": {"test_system": "MB9862: MB 5890 Trans pFlp-Vim1 (OprD+, efflux−)", "format": "cell-based, Pseudomonas aeruginosa", "conditions": "MB9862 = MB 5890 Trans pFlp-Vim1, OprD+, efflux−"}, "[5]": {"test_system": "Pseudomonas aeruginosa MB 5919 (OprD+, efflux+)", "format": "cell-based", "conditions": "MB 5919, OprD+, efflux+"}, "[6]": {"test_system": "MB 9798: MB 5919 Trans IMP1 plasmid (OprD+, efflux+)", "format": "cell-based, Pseudomonas aeruginosa", "conditions": "MB 9798 = MB 5919 Trans IMP1 plasmid, OprD+, efflux+"}, "[7]": {"test_system": "MB 5890 Trans pFlp-Vim2 plasmid (OprD+, efflux−)", "format": "cell-based, Pseudomonas aeruginosa", "conditions": "MB 5890 Trans pFlp-Vim2 plasmid, OprD+, efflux−"}, "[8]": {"test_system": "MB 9861: MB 5919 Trans pFlp-Vim1 plasmid (OprD+, efflux+)", "format": "cell-based, Pseudomonas aeruginosa", "conditions": "MB 9861 = MB 5919 Trans pFlp-Vim1 plasmid, OprD+, efflux+"}}}
{"smiles": "CCN1CCN(C(=O)N[C@@H](C(=O)N[C@@H]2C(=O)N3[C@@H]2SC(C)(C)[C@@H]3C(=O)O)c2ccccc2)C(=O)C1=O", "note": "[Piperalln, piperacillin]", "values": [{"measurement": "MIC", "setting": "[1]", "value": 4, "unit": "µg/mL"}, {"measurement": "MIC", "setting": "[2]", "value": 1, "unit": "µg/mL"}, {"measurement": "MIC", "setting": "[3]", "value": ">256", "unit": "µg/mL"}, {"measurement": "MIC", "setting": "[4]", "value": 128, "unit": "µg/mL"}, {"measurement": "MIC", "setting": "[5]", "value": 2, "unit": "µg/mL"}, {"measurement": "MIC", "setting": "[6]", "value": 4, "unit": "µg/mL"}, {"measurement": "MIC", "setting": "[7]", "value": 128, "unit": "µg/mL"}, {"measurement": "MIC", "setting": "[8]", "value": ">256", "unit": "µg/mL"}]}
